Experimental data reported in US9487462B2, “Inhibitors of matrix metalloproteinases” (PharmaHungary 2000 Kft., priority 2010, dated 2016).
Counter-ions that a name gives are not always drawn. Like-named read-outs stand apart in the source and are kept apart here.

Experiments:
[1] = Cytotoxicity, alamarBlue viability, HCT116; type: cell-based; details: human, HCT116 colon tumor cells, 48 hours incubation, read-out: HCT116 LC50
Protocol: (§1) Beside the inhibitory effect on MMPs we tested the cytotoxicity of the selected compounds. These measurements were done in parallel on two cell lines. One of them was the healthy human fibroblast cell line MRC-5 while the other was the human colon tumor cell line HCT116. The viability of the cells was monitored using alamarBlue. This dye is reduced by the cells resulting in an increased fluorescent signal which is proportional to the number of living cells. Cells were incubated with the dilutions of the tested compounds for 48 hours then alamarBlue was added to them for 4 hours. After that the fluorescence changes were detected using excitation at 540 nm and emission wavelength of 590 nm by a Wallac 1420 Microplate Reader. IC50 values were determined for the compounds using six concentrations and duplicate points for each concentration.

MMP1 [2] = target: T1, MMP1 (Homo sapiens (Human), UniProt P03956); assay: MMP activity assay (fluorogenic substrate), MMP1; type: biochemical; details: Table 2; read-out: MM1 IC50
Target sequence in this assay (P03956 100-469, species assumed): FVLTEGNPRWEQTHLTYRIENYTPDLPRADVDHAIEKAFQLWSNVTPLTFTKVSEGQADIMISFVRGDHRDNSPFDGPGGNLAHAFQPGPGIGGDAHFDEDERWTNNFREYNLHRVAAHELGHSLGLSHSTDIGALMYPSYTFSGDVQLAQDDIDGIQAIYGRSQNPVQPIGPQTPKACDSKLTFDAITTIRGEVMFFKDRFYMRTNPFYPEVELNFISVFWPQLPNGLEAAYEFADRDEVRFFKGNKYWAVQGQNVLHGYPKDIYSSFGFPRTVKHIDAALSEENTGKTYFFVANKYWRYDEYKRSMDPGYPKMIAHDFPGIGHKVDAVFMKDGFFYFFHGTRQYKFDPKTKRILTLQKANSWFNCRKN

MMP9 = MMP9 (Homo sapiens, UniProt P14780); assay: MMP activity assay (fluorogenic substrate), MMP9 catalytic domain; type: biochemical; details: Table 2
Protocol: (§2) MMP activity assays were conducted as follows: MMP2, MMP9, MMP13 catalytic domain was expressed in E. coli in form of inclusion bodies followed by refolding and purification.
(§3) The Protocol of the Activity Assay:
(§4) Stock solution of substrate (Mca-Lys-Pro-Leu-Gly-Leu-Dpa-Ala-Arg-NH2) was prepared in DMSO at a concentration of 6 mM. Assays were performed in an assay buffer (50 mM Tris pH 7.5, 300 mM NaCl, 10 μM ZnSO4, 5 mM CaCl2, 0.005% Brij-35). The final DMSO concentration in all assays was 1.0%. […] The assays were carried out at 37° C. The fluorescence changes, resulting from the substrate cleavage, were detected using excitation at 340 nm and emission wavelength of 405 nm using a Wallac 1420 Microplate Reader. The reaction mixtures were preincubated with the inhibitors for 30 minutes. The reactions were started by the addition of MMP substrate, and the fluorescence intensity changes were measured after 60 minutes. The obtained fluorescence values were normalized and % inhibition values calculated. Dose response curves were determined from 6 concentration points using three fold dilution steps, each concentration point was determined in duplicate. IC50 values were calculated from the dose response curves.

MMP-2 = MMP-2 (Rattus norvegicus (Rat), UniProt P33436); assay: In vitro zymography assay (gelatin), MMP-2; type: biochemical
Sequence of MMP-2 (P33436 110-662): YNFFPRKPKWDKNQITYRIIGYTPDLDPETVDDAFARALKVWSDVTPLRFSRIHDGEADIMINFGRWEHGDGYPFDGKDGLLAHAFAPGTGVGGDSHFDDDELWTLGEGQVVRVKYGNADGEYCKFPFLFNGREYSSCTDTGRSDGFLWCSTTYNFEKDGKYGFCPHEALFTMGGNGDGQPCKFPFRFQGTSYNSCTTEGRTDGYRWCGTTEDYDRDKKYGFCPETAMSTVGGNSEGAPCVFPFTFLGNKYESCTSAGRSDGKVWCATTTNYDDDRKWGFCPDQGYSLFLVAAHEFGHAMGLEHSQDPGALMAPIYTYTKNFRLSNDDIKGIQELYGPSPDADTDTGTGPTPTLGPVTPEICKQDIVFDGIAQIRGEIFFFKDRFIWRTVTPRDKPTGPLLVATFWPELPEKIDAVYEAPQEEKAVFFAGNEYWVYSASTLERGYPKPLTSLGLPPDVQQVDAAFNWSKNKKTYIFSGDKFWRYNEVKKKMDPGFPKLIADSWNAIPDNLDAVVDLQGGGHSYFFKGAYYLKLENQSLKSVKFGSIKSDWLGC
Protocol: (§5) MMP-2 and MMP-9 enzymes were isolated from rat hearts and from rat spleen while human, recombinant MMP-1 and MMP-13 enzymes used were commercial. MMP-2, -9, -13 enzymes were separated by electrophoresis during non-reducing conditions on 8% SDS-polyacrylamide gels copolymerized with 2 mg/ml gelatin from porcine skin (Sigma Aldrich) while MMP-1 was separated under the same conditions on 8% SDS-polyacrylamide gels copolymerized with 2 mg/ml casein (Sigma Aldrich). […] In case of MMP-13 p-aminophenylmercuric acetate (APMA) was used for enzyme activation at 37° C. for 30 min. After electrophoresis, gels were washed in 2.5% Triton-X 100 with agitation and then incubated for 20 hrs at 37° C. in enzyme incubation buffer (50 mM Tris-HCl, pH 7.5, containing 5 mM CaCl2, 200 mM NaCl) with or without MMP inhibitor. Zymographic gels were stained in Coomassie Brilliant Blue R-250 and de-stained. Gelatin and casein zymograms were scanned. MMP activity is detected as a white zone on a blue background and the clear bands in the gel can be quantified by densitometry. The obtained density values were measured and % inhibition values calculated (Kupai et al., 2010). The table below summarizes the prescreen inhibition values determined for different MMP inhibitors on MMP1, -2, -9, -13.

isolated rat hearts = assay: Myocardial ischemia/reperfusion injury in isolated rat hearts (Langendorff), infarct size; type: ex vivo; details: 5 μM final concentration; isolated rat hearts, 30 min global ischemia, 120 min reperfusion
Protocol: Male Wistar rats were anesthetized with diethyl ether, heparin (500 U/kg i.v.) was administered and hearts were isolated. The hearts were assigned to three groups: (i) DMSO control and (ii) Compound 1 (1 μM) and (iii) Compound 1 (10 μM) treated. Stock solution of inhibitors was prepared in DMSO. The final DMSO concentration in all assays was 0.1%. Hearts were perfused in Langendorff mode with constant pressure (100 H2O cm) for 20 min at 37° C. then exposed to global ischemia for 30 min followed by 120 min of reperfusion. The DMSO and inhibitors were dissolved in Krebs-Henseleit buffer and administered only before onset of ischemia for 20 min (pretreatment) and during the first 30 min of reperfusion (FIG. 6). At the end of reperfusion, infarct size (IS) was defined by triphenyltetrazolium chloride staining (Csonka et al., 2010).
In separate experiments hearts were perfused to test cardioprotective effect of ALBH-know compound at 5 μM final concentration. The same protocol was used as mentioned above.

MMP13 [3] = target: T2, MMP13 (Homo sapiens (Human), UniProt P45452); assay: MMP activity assay (fluorogenic substrate), MMP13 catalytic domain; type: biochemical; details: Table 2; read-out: MMP13 IC50
Protocol: as §2, §3
as §4, with “The fluorescence changes, resulting from the substrate cleavage, were detected using excitation at 340 nm and emission wavelength of 405 nm using a Wallac 1420 Microplate Reader.” left out

[4] = Cytotoxicity, alamarBlue viability, MRC-5; type: cell-based; details: human, MRC-5 fibroblast cells, 48 hours incubation, read-out: MRC-5 LC50
Protocol: as §1

MMP13 [5] = target: T2, MMP13; assay: In vitro zymography assay (gelatin), MMP-13; type: biochemical; details: % ± SD; for % inhibition MMP-13 (50 kDa): 1 μM; for inhibition at 100 µM: read-out: % inhibition MMP-13 (50 kDa)
Protocol: as §5

[6] = tested on: neonatal rat cardiac myocytes; assay: Cytoprotective effect in cardiac myocytes subjected to hypoxia and reoxygenation; type: cell-based
Protocol: Neonatal rat hearts were digested and isolated cardiomyocytes were plated onto 24-well plastic plates at […]. The cells were maintained at 37° C. in a humidified atmosphere of 5% CO2 and 95% air in a CO2 incubator until confluence was reached. Cultures at day 3 were used for treatments. Cells were kept under normoxic or simulated ischemic conditions, i.e. the growth medium was changed to a normoxic or hypoxic solution and the cells were incubated under 95% air and 5% CO2 or 95% N2 and 5% CO2 at 37° C. for 4 h, respectively as described in detail (Gorbe A, Giricz Z, Szunyog A, Csont T, Burley D S, Baxter G F, Ferdinandy P. Role of cGMP-PKG signaling in the protection of neonatal rat cardiac myocytes subjected to simulated ischemia/reoxygenation. Basic Res Cardiol. 105:643-650, 2010). The positive control ilomastate (0.5 microM) and MMP-inhibitors at different effective concentrations (EC 5, EC 10, EC 20, and EC50 as determined in previous test examples) were applied during normoxia or simulated ischemia and also during reoxygenation. The vehicle was DMSO. Cell viability was determined after Calcein A M fluorescent staining as described (Karliner J S, Honbo N, Summers K, Gray M O, Goetzl E J. The lysophospholipids sphingosine-1-phosphate and lysophosphatidic acid enhance survival during hypoxia in neonatal rat cardiac myocytes. J Mol Cell Cardiol, 33:1713-7, 2001). Total cell count was determined after digitonin treatment to permeabilize the cells by using propidium iodine fluorescent staining (Roy S S, Hajnoczky G. Calcium, mitochondria and apoptosis studied by fluorescence measurements. Methods. 46:213-223, 2008).

MMP2 = MMP2 (Homo sapiens, UniProt P08253); assay: MMP activity assay (fluorogenic substrate), MMP2 catalytic domain; type: biochemical; details: Table 2; read-out: MMP2 IC50
Protocol: as §2, §3, §4

[7] = tested on: human colon tumor cell line HCT116; assay: Cytotoxicity, alamarBlue viability, HCT116; type: cell-based; details: 48 hours incubation, read-out: HCT116 LC50
Protocol: as §1

[8] = tested on: healthy human fibroblast cell line MRC-5; assay: Cytotoxicity, alamarBlue viability, MRC-5; type: cell-based; details: 48 hours incubation, read-out: MRC-5 LC50
Protocol: as §1

MMP1 [9] = target: T1, MMP1; assay: In vitro zymography assay (casein), MMP-1; type: biochemical; details: % ± SD
Protocol: as §5
Target sequence in this assay (P03956 100-469): as the sequence (P03956 100-469, species assumed) above

[10] = % ± SD, read-out: % inhibition MMP-2 (72 kDa)

IC50 (MMP1 [2]) [µM]	IC50 (MMP9) [µM]	% inhibition MMP-2 (72 kDa) (MMP-2; 1 μM, % ± SD)	inhibition at 100 µM (MMP-2; [10]) [%]	IC50 (MMP13 [3]) [µM]	IC50 (MMP2) [µM]	SMILES	CC50 at 48 h [1] [µM]	CC50 at 48 h [4] [µM]	also measured
3.6	15	No inhibition	100	1.62	–	O=C(O)c1csc(CN(Cc2ccc(F)cc2)Cc2ccc(OCc3ccccc3)cc2)n1 [ALBH-known, 2-[({[4-(benzyloxy)phenyl]methyl}[(4-fluorophenyl)methyl]amino)methyl]-1,3-thiazole-4-carboxylic acid, reference compound]	3.5	33	reduction of myocardial IS as compared to vehicle (isolated rat hearts): 72.01±4.96%
> 500	> 500	–	4.78 ± 7.18	8.5	> 500	O=C(O)c1csc(CN(Cc2ccc(OCc3ccncc3)cc2)Cc2cccnc2)n1 [Compound 12, 2-{[(Pyridin-3-ylmethyl)({[4-(pyridin-4-ylmethoxy)phenyl]methyl})amino]methyl}-1,3-thiazole-4-carboxylic acid]	37	90	inhibition at 1 µM (MMP-2; 1 μM, % ± SD, read-out: % inhibition MMP-2 (72 kDa)): 5.59 ± 11.8%
33	100	–	–	3.3	15	O=C(O)c1c[nH]c(CN(Cc2ccc(F)cc2)Cc2ccc(OCc3ccccc3)cc2)n1 [Compound 30 HCl, 2-[({[4-(Benzyloxy)phenyl]methyl}[(4-fluorophenyl)methyl]amino)methyl]-1H-imidazole-4-carboxylic acid]	–	–	CC50 [7]: 5.6 µM; CC50 [8]: 15 µM
3.9	13	No inhibition	100	1.76	6.6	O=C(O)c1c[nH]c(CN(Cc2ccc(F)cc2)Cc2ccc(OCc3ccccc3)cc2)n1 [Compound 30, 2-[({[4-(Benzyloxy)phenyl]methyl}[(4-fluorophenyl)methyl]amino)methyl]-1H-imidazole-4-carboxylic acid]	6	30	IC50 (MMP-2; zymography, Table 8, read-out: IC50 on MMP-2): 0.081 µM; % inhibition MMP-1 (52 kDa) (MMP1 [9]; 1 μM): No inhibition; % inhibition MMP-1 (55 kDa) (MMP1 [9]; 1 μM): No inhibition; inhibition at 100 µM (MMP1 [9]; read-out: % inhibition MMP-1 (52 kDa)): 63.4 ± 18.3%; inhibition at 100 µM (MMP1 [9]; read-out: % inhibition MMP-1 (55 kDa)): 61.1 ± 6.78%

Further lines, the compound ahead of its results:

SMILES	IC50 (MMP1 [2]) [µM]	IC50 (MMP9) [µM]	% inhibition MMP-2 (72 kDa) (MMP-2; 1 μM, % ± SD)	inhibition at 100 µM (MMP-2; [10]) [%]	IC50 (MMP13 [3]) [µM]	IC50 (MMP2) [µM]	CC50 at 48 h [1] [µM]	CC50 at 48 h [4] [µM]	also measured
O=C(O)c1csc(CN(Cc2ccc(OCc3cccnc3)cc2)Cc2cccnc2)n1 [Compound 10, 2-[({[4-(Pyridin-3-ylmethoxy)phenyl]methyl}(pyridin-3-ylmethyl)amino)methyl]-1,3-thiazole-4-carboxylic acid]	> 500	> 500	–	–	1.5	> 500	20	20	% inhibition MMP-13 (50 kDa) (MMP13 [5]): No inhibition; inhibition at 100 µM (MMP13 [5]): 53.6 ± 18.9%; Cytoprotective effect, % cell survival as compared to vehicle DMSO ([6]; normoxia, EC5 concentration 0.3 microM): 112 ± 3 %; Cytoprotective effect, % cell survival as compared to vehicle DMSO ([6]; normoxia, EC10 concentration 1.0 microM): 112 ± 1 %; Cytoprotective effect, % cell survival as compared to vehicle DMSO ([6]; normoxia, EC20 concentration 3.0 microM): 115 ± 3 %; Cytoprotective effect, % cell survival as compared to vehicle DMSO ([6]; normoxia, EC50 concentration 9.0 microM): 108 ± 1%; Cytoprotective effect, % cell survival as compared to vehicle DMSO ([6]; simulated ischemia, EC5 concentration 0.3 microM): 117 ± 2 %; Cytoprotective effect, % cell survival as compared to vehicle DMSO ([6]; simulated ischemia, EC10 concentration 1.0 microM): 119 ± 2 %; Cytoprotective effect, % cell survival as compared to vehicle DMSO ([6]; simulated ischemia, EC20 concentration 3.0 microM): 123 ± 6 %; Cytoprotective effect, % cell survival as compared to vehicle DMSO ([6]; simulated ischemia, EC50 concentration 9.0 microM): 136 ± 2 %
O=C(O)c1csc(CN(Cc2ccc(OCc3ccccc3)cc2)Cc2cccnc2)n1 [Compound 14, 2-[({[4-(Benzyloxy)phenyl]methyl}(pyridin-3-ylmethyl)amino)methyl]-1,3-thiazole-4-carboxylic acid]	240	> 500	No nhibiton	100	8	90	19	42	–
O=C(O)c1c[nH]c(CN(Cc2ccc(F)cc2)Cc2ccc(OC(c3ccccc3)c3ccccc3)cc2)n1 [Compound 22, 2-[({[4-(Diphenylmethoxy)phenyl]methyl}[(4-fluorophenyl)methyl]amino)methyl]-1H-imidazole-4-carboxylic acid]	16	8	–	–	0.28	35	0.7	2	% inhibition MMP-13 (50 kDa) (MMP13 [5]): No inhibition; inhibition at 100 µM (MMP13 [5]): 71.7 ± 4.49%
